CC1=NN(c2ccccc2)C(=O)C1
solubility (mole fraction)
Settings | in 2,4-dimethylphenol | in DMSO | in NMP | in diglyme | in morpholine-4-carbaldehyde | in tetraglyme | in triglyme
298.15 K | 0.0188 | 0.0758 | 0.0383 | 0.0205 | 0.0111 | 0.0463 | 0.0153
303.15 K | 0.0282 | 0.122 | 0.0496 | 0.0269 | 0.0146 | 0.0863 | 0.022
308.15 K | 0.0408 | 0.201 | 0.0694 | 0.0333 | 0.0176 | 0.131 | 0.0311
313.15 K | 0.0565 | 0.298 | 0.0861 | 0.0416 | 0.0217 | 0.212 | 0.0457

— BigSolDB 2.1
